Experimental data: US8709506B2, “Synergistic compositions for the treatment of topical viral infections” (Vitro Bio Sarl, priority 2010, dated 2014)

Columns and labels:
influenza virus = assay type: cell-based; conditions: for % cell death after 72 h TCID50 influenza virus infection: protease 0.5 μg/ml, MDCK cells, serum free medium, virus control 48.21 ± 6.77
herpes virus = assay type: cell-based; conditions: for % cell death after 72 h TCID50 herpes virus infection: protease 0.5 μg/ml, Vero cells, serum free medium, virus control 56.0 ± 2.3

**Q.** Which “% increase in influenza viral growth compared to virus control” value (from here on “% increase in influenza viral growth”) (influenza virus) does the source give for “MMP-3: purified human MMP 3 (stromelysin-1), AnaSpec” here?
**A.** −8.49%

**Q.** What about the “% increase in herpes virus growth compared to controls” value (from here on “% increase in herpes virus growth”) (herpes virus) of the same substance?
**A.** +7.57%

**Q.** And the “% cell death after 72 h TCID50 herpes virus infection” value (herpes virus)?
**A.** 64.16 ± 4.29%

**Q.** How did the “% increase in influenza viral growth” value (influenza virus) turn out when “MMP-1: purified human MMP 1 (interstitial and fibroblast collagenase), AnaSpec” was run?
**A.** +63.87%

**Q.** And the “% cell death after 72 h TCID50 influenza virus infection” value (influenza virus)?
**A.** 47.76 ± 7.26%

**Q.** What about the “% increase in herpes virus growth” value (herpes virus) of the same substance?
**A.** +8.43%

**Q.** And the “% cell death after 72 h TCID50 herpes virus infection” value (herpes virus)?
**A.** 66.32 ± 7.11%

**Q.** “MMP-10: purified human MMP-10 (stromelysin 2), AnaSpec” was tested. Which “% increase in influenza viral growth” value (influenza virus) did it give?
**A.** +8.26%

**Q.** And the “% cell death after 72 h TCID50 influenza virus infection” value (influenza virus)?
**A.** 52.19 ± 7.56%

**Q.** What about the “% increase in herpes virus growth” value (herpes virus) of the same substance?
**A.** +25.82%

**Q.** What about the “% cell death after 72 h TCID50 herpes virus infection” value (herpes virus) of the same substance?
**A.** 70.46 ± 5.41%

**Q.** Which “% increase in influenza viral growth” value (influenza virus) does the source give for “MMP-7: purified human MMP7 (proenzyme), AnaSpec” here?
**A.** +50.92%

**Q.** What about the “% cell death after 72 h TCID50 influenza virus infection” value (influenza virus) of the same substance?
**A.** 72.76 ± 5.96%

**Q.** What about the “% increase in herpes virus growth” value (herpes virus) of the same substance?
**A.** +1.96%

**Q.** And the “% cell death after 72 h TCID50 herpes virus infection” value (herpes virus)?
**A.** 57.10 ± 6.68%
